Tests used:
[1] = human
[2] = human, serum
[3] = human, serum, 4383 h
[4] = Highest frequency of moderate liver toxicity observed during clinical trials, expressed as a percentage. [column '% BIOL' in source]; settings: human
[5] = human; remark: listed apart in the source
[6] = human; remark: listed apart in the source
[7] = human; remark: listed apart in the source
[8] = human; remark: listed apart in the source
[9] = human; remark: listed apart in the source
[10] = human; remark: listed apart in the source
[11] = Times to onset, minimal and maximal, observed in the indexed observations. [column 'DELAI' in source]; settings: human
[12] = human; remark: listed apart in the source
[13] = Presence of at least one case with successful reintroduction. [column 'REINT' in source]; settings: human
[14] = human; remark: listed apart in the source
[15] = Proposed mechanism(s) of liver damage. [column 'MEC' in source]; settings: human
[16] = human, serum; remark: listed apart in the source
[17] = Highest frequency of acute liver toxicity observed during clinical trials, expressed as a percentage. [column '% AIGUE' in source]; settings: human
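Throughout, for Hepatotoxicity (association with vascular disease): count of indexed literature references reporting vascular liver injury in humans, e.g. peliosis hepatitis, hepatic veno-occlusive disease or Budd-Chiari syndrome.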
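Throughout, for Hepatotoxicity (benign tumour): value is a count of indexed literature references citing a benign tumour confirmed by histopathology.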
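Throughout, for Hepatotoxicity (choleostasis): human cholestatic liver injury, shown by histopathology or by peak ALT or AST elevation over alkaline phosphatase ratio below 2, value counts indexed literature reports.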
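Throughout, for Hepatotoxicity (chronic liver disease): chronic liver injury confirmed by histopathology or persistently raised serum aminotransferase activity beyond 6 months, value given as the count of indexed literature references.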
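Throughout, for Hepatotoxicity (cirrhosis): value is a count of indexed literature references reporting cirrhosis confirmed by histopathology.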
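Throughout, for Hepatotoxicity (cytolytic): human cytolytic liver injury, shown by histopathology or by a ratio above 5 of peak ALT or AST elevation to alkaline phosphatase elevation, value counts indexed references.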
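Throughout, for Hepatotoxicity (granulomatous hepatitis): value is a count of indexed literature references reporting granulomatous liver disease confirmed by histopathology.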
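Throughout, for Hepatotoxicity (malignant tumour): malignant tumour confirmed by histopathology, value gives the count of indexed literature references reporting it.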
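Throughout, for Hepatotoxicity (severe hepatitis): human clinical data: severe hepatitis, meaning potentially life-threatening liver failure or clinically observed cases, the value counts how many indexed literature references report it.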
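Throughout, for Hepatotoxicity (steatosis): steatosis confirmed by histopathology, value is the count of indexed references.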

Molecule	Hepatotoxicity (steatosis) [1]	Hepatotoxicity (moderate) [2]	Hepatotoxicity (chronic liver disease) [3]	Hepatotoxicity (association with vascular disease) [5]	Hepatotoxicity (cirrhosis) [8]	Hepatotoxicity (benign tumour) [10]	Hepatotoxicity (time to onset) [11]	Hepatotoxicity (malignant tumour) [12]	Hepatotoxicity (successful reintroduction) [13]	Hepatotoxicity (moderate) [4]	Hepatotoxicity (acute) [16]	Hepatotoxicity (severe hepatitis) [6]	Hepatotoxicity (choleostasis) [7]	Hepatotoxicity (acute) [17]	Hepatotoxicity (granulomatous hepatitis) [9]	Hepatotoxicity (cytolytic) [14]	also measured
Clc1ccc2nsnc2c1NC1=NCCN1 [TIZANIDINE]	1	2	0	0	0	0	6 days - 3.5 months	0	yes	–	–	–	–	–	–	–	Hepatotoxicity (moderate) ([4]; Liver): 0%; Hepatotoxicity (severe hepatitis) ([6]; Liver): 2; Hepatotoxicity (choleostasis) ([7]; Liver): 0; Hepatotoxicity (granulomatous hepatitis) ([9]; Liver): 0; Hepatotoxicity (cytolytic) ([14]; Liver): 1; Hepatotoxicity (mechanism) ([15]; Liver): Allergic
CC[C@@]1(O)C[C@H](O[C@H]2C[C@H](N(C)C)[C@H](O[C@H]3C[C@H](O)[C@H](O[C@H]4CCC(=O)[C@H](C)O4)[C@H](C)O3)[C@H](C)O2)c2c(cc3c(c2O)C(=O)c2c(O)cccc2C3=O)[C@H]1C(=O)OC [ACLARUBICIN]	0	8	0	0	0	0	–	0	yes	26.7%	0	1	0	0%	0	0	Hepatotoxicity (mechanism) [15]: Dose-dependant
CN(C)Cc1ccc(CSCCN/C(=C\[N+](=O)[O-])NCc2ccc3c(c2)OCO3)o1 [NIPEROTIDINE]	0	0	0	0	0	0	15 days - 7 months	0	yes	–	2	–	–	–	–	–	Hepatotoxicity (moderate) ([4]; Liver): 0%; Hepatotoxicity (severe hepatitis) ([6]; Liver): 2; Hepatotoxicity (choleostasis) ([7]; Liver): 2; Hepatotoxicity (acute) ([17]; Liver): 0%; Hepatotoxicity (granulomatous hepatitis) ([9]; Liver): 0; Hepatotoxicity (cytolytic) ([14]; Liver): 2
COC(=O)C1=C(C)NC(C)=C(C(=O)OC)C1c1ccccc1[N+](=O)[O-] [NIFEDIPINE]	3	6	0	–	0	0	2 days - 6 years	0	yes	12%	–	2	7	4%	0	5	Hepatotoxicity (mechanism) [15]: Allergic
COc1cc(C(=O)NS(=O)(=O)c2ccccc2C)ccc1Cc1cn(C)c2ccc(NC(=O)OC3CCCC3)cc12 [ZAFIRLUKAST]	0	4	0	0	0	0	2 months - 1 year	0	yes	4.1%	8	3	0	0.5%	0	8	–
O=C1C(O)=C([C@H]2CC[C@H](c3ccc(Cl)cc3)CC2)C(=O)c2ccccc21 [ATOVAQUONE]	0	9	0	0	0	0	10 days - 6 weeks	0	yes	16%	2	0	0	5.3%	0	2	–
O=c1cc[nH]c(=S)[nH]1 [THIOURACIL]	0	0	0	0	0	0	1 day - 3 weeks	0	yes	0%	5	1	1	5.9%	0	1	–
C[C@]12C/C(=C/O)C(=O)C[C@@H]1CC[C@@H]1[C@@H]2CC[C@@]2(C)[C@H]1CC[C@]2(C)O [OXYMETHOLONE]	0	2	0	12	0	11	11 days - 15 years	14	yes	50%	10	2	3	52.8%	0	1	–
COC(=O)C(c1ccccc1)C1CCCCN1 (stereo not drawn) [METHYLPHENIDATE]	0	1	0	0	0	0	2 days - 2 months	0	yes	0%	4	2	0	0%	0	3	–
INSULIN HUMAN	0	5	0	0	0	0	6 days - 1 month	0	yes	0%	1	0	0	0%	0	1	–
